Patent US20090202428A1, “Use of Dtbz for Imaging Endocrine Pancreas and Beta Cell Mass In Type 1 Diabetes” (priority 2005, published 2009)

Experiments:
endocrine pancreas = assay: serial PET imaging with [11C]DTBZ in the spontaneously diabetic BB-DP rat model; assay type: in vivo; settings: series of ten BB-DP rats, compared with IPGTT
Method: Blood samples were collected from the rat tail vein. The blood glucose (BG) levels of the rats were monitored daily using an Accu-Check blood glucose monitoring system (Roche Diagnostics, Somerville, N.J.). […] After baseline BG measurements, animals received an intraperitoneal injection of 1 g glucose/kg body wt. BG concentrations were measured again 5, 10, 15, 30, 60, and 120 min later. Animals were considered diabetic when four consecutive BG values were above 300 mg/dL and had abnormal IPGTT responses. Animals were imaged at baseline before the development of diabetes at day 45.
PET scans were performed serially on the study subject at approximately day 50 and then every two weeks until the animals developed stable diabetes. Prior to imaging, the animals were anesthetized with intrapertioneal injections of ketamine and xylazine. After a whole-body transmission scan had been obtained (used to perform attenuation correction of the emission data), the radioligand was taken up in a sterile saline vehicle and 200-300 μCi of [11C] DTBZ was administered in a bolus injection via the penile vein. PET scans of the animals were acquired dynamically to 60 min post injection on a Concorde microPET-R4 (CTI Molecular Imaging, Knoxville, Tenn., USA). The scanner provided a 100×80 mm field of view with a reconstructed resolution of 2.25 mm in the central 40 mm of the field of view. […]

[1] = tested on: membranes from the exocrine pancreas; assay: binding of [3H]DTBZ to total membrane fractions from purified exocrine pancreas tissue; design: species or system human
From the text: (§1) Previous studies, at both protein and nucleic acid levels, have shown the underlying physiochemical basis for this functional similarity (Atouf, et al, 1997, Expression of neuronal traits in pancreatic beta cells. Implication of neuron-restrictive silencing factor/repressor element silencing transcription factor, a neuron-restrictive silencer, J Biol Chem 272:1929-1934, Bernal-Mizrachi, et al, 2003, Gene expression profiling in islet biology and diabetes research, Diabetes Metab Res Rev 19:32-42, and […] al, 1996, Differentiation and growth of pancreatic beta cells, Diabetes Metab 22:223-228). The inventors own gene expression mapping studies led them to focus on one such shared gene product, VMAT2, vesicular monoamine transporter type 2, expressed by β-cells, but absent from the exocrine pancreas and a variety of-the other abdominal organs ([…], et al, 2004, Identification of tissue-restricted transcripts in human islets, Endocrinology 145:4513-4521). A specific ligand for VMAT2, dihydrotetrabenazine (DTBZ) is already in clinical use for positron emission tomography (PET) imaging of central nervous system disorders (Vander Borght, et al, 1995, In vivo imaging of the brain vesicular monoamine transporter, J Nucl Med 36:2252-2260). The inventors studied the binding of [3H]DTBZ to total membranes fractions prepared from purified human islets and purified exocrine pancreas tissue.

[2] = tested on: islet membranes (purified human islets); assay: binding of [3H]DTBZ to total membrane fractions from purified human islets
From the text: as §1

[3] = target: T1, VMAT2 expressed by β-cells of the endocrine pancreas (Rattus norvegicus, UniProt Q01827); assay: PET imaging with [11C]DTBZ of normal and STZ induced diabetic Lewis rats; assay type: in vivo
T1 construct: The inventors next targeted VMAT2 expressed by β-cells of the endocrine pancreas with [11C]; DTBZ; from tissue; host or cells: pancreas (beta cells of the islets) of living Lewis rats, normal and STZ-induced diabetic
T1 sequence (Q01827 whole entry): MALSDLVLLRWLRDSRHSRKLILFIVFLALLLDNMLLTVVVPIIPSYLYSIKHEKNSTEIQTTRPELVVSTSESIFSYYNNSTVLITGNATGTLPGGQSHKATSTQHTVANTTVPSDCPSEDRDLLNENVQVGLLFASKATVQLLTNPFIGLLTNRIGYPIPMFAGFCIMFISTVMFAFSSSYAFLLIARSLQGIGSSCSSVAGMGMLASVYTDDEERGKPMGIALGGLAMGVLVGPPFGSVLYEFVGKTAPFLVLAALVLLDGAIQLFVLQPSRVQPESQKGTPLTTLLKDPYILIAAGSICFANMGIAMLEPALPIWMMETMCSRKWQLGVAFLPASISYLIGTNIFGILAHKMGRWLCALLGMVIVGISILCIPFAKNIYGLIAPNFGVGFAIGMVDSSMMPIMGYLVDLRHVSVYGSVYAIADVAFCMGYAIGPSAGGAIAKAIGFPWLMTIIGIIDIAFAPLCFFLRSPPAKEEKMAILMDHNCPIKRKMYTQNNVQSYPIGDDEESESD
Method: Specific activities of carbon-11 labeled radiotracers were >2000 mCi/μmol at the time of injection.
STZ solution was prepared fresh by dissolving it in 0.1 M citrate buffer (pH 5.5) and terminally sterile filtered. Age and weight-matched control rats were injected with citrate buffer alone.
PET scans were performed on four normal and three diabetic adult rat subjects. Prior to imaging, the animals were anesthetized with intraperitoneal injections of ketamine and xylazine. After a whole-body transmission scan had been obtained (used to perform attenuation correction of the emission data), the radioligand was taken up in a sterile saline vehicle and 200-300 μCi of [11C] DTBZ was administered in a bolus injection via the penile vein. PET scans of the animals were acquired dynamically to 60 min postinjection on a Concorde microPET-R4 (CTI Molecular Imaging, Knoxville, Tenn., USA). The scanner provided a 100×80 mm field of view with a reconstructed resolution of 2.25 mm in the central 40 mm of the field of view. PET data were processed using attenuation correction matrix obtained by transmission scans and images were reconstructed using Fourier re-binning, followed by two-dimensional, filtered back projection. […]

VMAT2 = settings: previous studies (Scherman et al.); cited from earlier work

COc1cc2c(cc1O[11CH3])CCN1CC(CC(C)C)C(O)CC21 (stereo not drawn) [[11C]DTBZ, [11C] dihydrotetrabenazine]
reduction of [11C]DTBZ uptake that resulted in signs of glucose intolerance and hyperglycemia (endocrine pancreas): approximately 50%

COc1cc2c(cc1OC)[C@H]1C[C@@H](O)[C@H](CC(C)C)CN1CC2 [[3H]DTBZ]
binding of [3H]DTBZ to membranes from the exocrine pancreas [1]: not | binding of [3H]DTBZ to islet membranes [2]: specifically bound

COc1cc2c(cc1OC)[C@H]1C[C@@H](O)[C@H](CC(C)C)CN1CC2 [DTBZ, dihydrotetrabenazine]
DTBZ uptake in gastric and splenic regions of the pancreas compared to the head of the organ ([3]; normal rat pancreata, PET): higher | time post-injection up to which pancreatic DTBZ uptake increased monotonically ([3]; normal rat, 60 min imaging period, from 1 minute): about 50 minutes | target specificity of DTBZ (VMAT2): specifically targets VMAT2
